The values below come from patent US8778871B2 (Takeda Pharmaceutical Company Limited, priority 2004, dated 2014).

Non-standard residues stand in square brackets, D forms with d. No end group written: not given here. Arg(Me) = CNC(=N)NCCC[C@H](N)C(=O)O; azaGly = NNC(=O)O

The nature of assay [1]: Blood testosterone level decreasing effect in mature male rat (0.1 mM peptide solution). Format: in vivo. As for the experimental part: (§1) This peptide solution was filled in 5 ALZET osmotic pumps (Model 2001, 0.2 ml in volume, release rate: 0.001 ml/hr, DURECT Corporation). The ALZET pumps filled with the peptide solution were implanted subcutaneously in 5 CD(SD)IGS male rats of 9 weeks old after birth (Charles River Japan, Inc.) on the back under ether anesthesia by one pump for one animal. For negative control, distilled water (Otsuka Pharmaceutical Co., Ltd.) was filled in 5 ALZET osmotic pumps, which were similarly implanted in 5 male CD(SD)IGS rats (Charles River Japan, Inc.), respectively. These pump-implanted rats were fed for 6 days under normal feeding conditions. After weighing, the animal was decapitated to collect blood. After 0.03 ml/ml blood of aprotinin solution (Trasylol, Bayer) containing 0.1 mg/ml EDTA.2Na was added to blood, the mixture was centrifuged at 1,800 G for 25 minutes to isolate/recover plasma. From the plasma obtained, 0.05 ml was applied to radioimmunoassay (DPC.Total Testosterone Kit, Diagnostic Products Corporation) to measure the plasma testosterone level of each rat. The value below the limit of measurement (0.04 ng/ml of plasma level) in radioimmunoassay was treated as 0. A mean value of the testosterone levels from 5 rats receiving the peptide was calculated and a relative value (percent) of the mean value to a mean value from 5 rats receiving distilled water.
In a manner similar to TEST EXAMPLE 14, evaluation was made using 0.1 mM peptide solution and a part of the results obtained are shown in TABLE 30.

In assay [2] the target is T1, hOT7T175 (Homo sapiens, UniProt Q969F8, L364H).
T1 construct: expressed in transfected cells
Format: cell-based. To be noted: hOT7T175/CHO, FLIPR, evaluation for 40 seconds after initiation of the reaction.
Experimental: The intracellular Ca ion level-increasing activity was measured using FLIPR as in TEST EXAMPLE 2.

The target of assay [3] is T2, hOT7T175 (Homo sapiens, UniProt Q969F8).
T2 construct: expressed in transfected cells
Briefly: Intracellular Ca ion level-increasing activity using FLIPR (180 seconds; specific activity to Metastin (1-54)). In kind it is cell-based. To be noted: hOT7T175/CHO, change in intracellular calcium ion level for 180 seconds, Tables 21-23. Background: Calcium flux is commonly read through the fluorescence of an indicator in the cells.

Assay [4] is described as follows: Blood testosterone level decreasing effect in mature male rat (2 mM peptide solution, ALZET osmotic pump). To be noted: 2 mM peptide solution in distilled water, ALZET osmotic pump s.c., 6 days, Tables 28 and 29. In kind it is in vivo. On the procedure: as §1
The target in assay [5] is T1, hOT7T175. Briefly: Intracellular Ca ion level-increasing activity using FLIPR (180 seconds; specific activity to Metastin (1-54)). In kind it is cell-based. To be noted: hOT7T175/CHO, relative to Metastin (1-54) = 1.

T2 sequence (Q969F8 whole entry L364H): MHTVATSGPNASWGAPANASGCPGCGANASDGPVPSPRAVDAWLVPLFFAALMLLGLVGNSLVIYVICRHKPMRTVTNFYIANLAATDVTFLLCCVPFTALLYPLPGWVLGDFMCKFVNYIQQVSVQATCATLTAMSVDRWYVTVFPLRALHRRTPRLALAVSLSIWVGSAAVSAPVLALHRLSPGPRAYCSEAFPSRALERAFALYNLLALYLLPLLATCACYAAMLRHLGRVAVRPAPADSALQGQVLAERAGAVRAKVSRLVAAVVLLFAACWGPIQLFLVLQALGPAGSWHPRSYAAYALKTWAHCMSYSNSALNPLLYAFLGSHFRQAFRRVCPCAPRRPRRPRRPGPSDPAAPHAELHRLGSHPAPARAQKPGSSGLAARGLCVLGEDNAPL
T1 sequence (Q969F8 whole entry L364H): as above

For the compound “3-Phenylpropionyl-Asn-Ser-Phe-AzaGly-Leu-Arg(Me)-Trp-NH2 [Compound No. 499]”, the “Teststerone level in Blood” value is 32% in assay [1] and 2% in assay [4]. In addition, the “Specific Act. (EC50/MS10 EC50)” value in assay [2] is given as 1.4. In addition, in assay [3], the “intracellular Ca ion level-increasing activity [specific activity to Metastin (1-54)]” value came to 10.

With `CNC(=N)NCCC[C@H](NC(=O)[C@H](CC(C)C)NC(=O)CNC(=O)[C@H](Cc1ccccc1)NC(=O)[C@H](CO)NC(=O)[C@H](CC(N)=O)NC(=O)[C@H](Cc1c[nH]c2ccccc12)NC(=O)[C@H](CC(N)=O)NC(=O)[C@H](N)Cc1ccc(O)cc1)C(=O)N[C@@H](Cc1ccccc1)C(N)=O` [Compound No. 141], in assay [2], the “Specific Act. (EC50/MS10 EC50)” value is 1.6. For the same compound, the “Specific Act. (intracellular Ca ion level-increasing activity, specific activity to Metastin (1-54))” value in assay [5] was 10. The “Teststerone level in Blood” value in assay [4] was determined as 31%.

Consider `CC(C)C[C@H](NC(=O)NNC(=O)[C@H](Cc1ccccc1)NC(=O)[C@H](CO)NC(=O)[C@H](CC(N)=O)NC(=O)[C@H](Cc1c[nH]c2ccccc12)NC(=O)[C@H](CC(N)=O)NC(=O)[C@@H](N)Cc1ccc(O)cc1)C(=O)N[C@@H](CCCNC(=N)N)C(=O)N[C@@H](Cc1ccccc1)C(N)=O` [Compound No. 176, Tyr-Asn-Trp-Asn-Ser-Phe-AzaGly-Leu-Arg-Phe-NH2], for which, in assay [2], the “Specific Act. (EC50/MS10 EC50)” value was determined as 1.3. Moreover, the “Specific Act. (intracellular Ca ion level-increasing activity, specific activity to Metastin (1-54))” value in assay [5] was found to be 5. Moreover, the “Teststerone level in Blood” value in assay [4] turned out to be 12%.

Regarding “D-Tyr-D-Pya(4)-Asn-Ser-Phe-AzaGly-Leu-Arg(Me)-Trp-NH2 [Compound No. 385]”, the “Teststerone level in Blood” value in assay [1] came out at 33%; in assay [4], 2%. Also, the “Specific Act. (EC50/MS10 EC50)” value in assay [2] stood at 0.7. Also, in assay [3], the “intracellular Ca ion level-increasing activity [specific activity to Metastin (1-54)]” value is listed as 10.

For H-YNWNSFGLRW-NH2 [Compound No. 134], the “Specific Act. (EC50/MS10 EC50)” value in assay [2] turned out to be 0.5. In assay [5], the “Specific Act. (intracellular Ca ion level-increasing activity, specific activity to Metastin (1-54))” value amounted to 30. Moreover, the “Teststerone level in Blood” value in assay [4] was 50%.

On to “[dY][dW]NTF[azaGly]L[Arg(Me)]W-NH2 [Compound No. 512]”, for which the “Teststerone level in Blood” value is reported as 38% in assay [1] and 2% in assay [4]. Besides, the “Specific Act. (EC50/MS10 EC50)” value in assay [2] turned out to be 0.8. Moreover, the “intracellular Ca ion level-increasing activity [specific activity to Metastin (1-54)]” value in assay [3] came to 30.
